The numbers were not newly measured in patent US7081474B2, “Drugs to improve synaptic transmission” (priority 1994, dated 2006), which cites them from elsewhere.

Like-named read-outs stand apart in the source and are kept apart here. No end group written: not given here.

The test system of data set [1] is slices of rat hippocampus. The settings on record: cited from earlier work.
Another data set has as its system experimental animals. Particulars: cited from earlier work.
Data set [2] has as its system LTP in hippocampus (CA1 field, dentate gyrus). The settings on record: cited from earlier work.
In a further data set the test system is rats. The settings on record: infused into lateral ventricles; cited from earlier work.

With `N[C@@]1(C(=O)O)CC[C@@H](C(=O)O)C1` [1S,3R-ACPD, aminocyclopentane-1S,3R-decarboxylate], the “effect on synaptic responses” value in data set [1] (brief application in vitro) is reported as “long lasting potentiation”. For the same compound, the deleterious effects result with experimental animals (administered directly into the brain) was “seizures and convulsions”.
With `NC(CCCP(=O)(O)O)C(=O)O` (stereo not shown) [APV, 2-amino-5-phosphonopentanoate], the “effect on LTP induction” value in data set [2] (CA1 field and dentate gyrus) was “prevent LTP from taking place”. Further, the “effect on LTP already established” value in data set [2] was “no effect”. Besides, in the data set on rats, the “learning of the task” value is reported as “prevented from learning the task”.
As for `O=C(O)CN(CCN(CC(=O)O)CC(=O)O)CC(=O)O` [EDTA], in data set [2] (intracellular injection), the “induction of LTP” value was “blocked”.
`CC(=O)N[C@@H](CC(C)C)C(=O)N[C@@H](CC(C)C)C(=O)N[C@H](C=O)CCCNC(=N)N` [leupeptin]: in data set [2] (infusion into lateral ventricles of rats), the “LTP on electrical stimulation of the hippocampus” value is reported as “no longer produces LTP”.
As for `CC[N+](CC)(CC)CC` [tetraethylammonium], the “effect on synaptic responses” value in data set [1] was “long lasting potentiation”.
Consider “mast-cell-degranulating peptide: K+ channel blocker (IKCNCKRHVIKPHICRKICGKN; ends and bridges not checked; cysteine pairing not given here; UniProt P01499 28-49, looked up)”, for which, in data set [1], the “effect on synaptic responses” value is recorded as “long lasting potentiation”. Besides, in the data set on experimental animals (in vivo), the deleterious effects entry was “seizures and convulsions”.
